Molecular target: T1, human fatty acid synthase FASN (Homo sapiens, UniProt P49327)
T1 construct: human recombinant full-length fatty acid synthase; made in house; host or cells: SF9 cells
Assay: Biochemical activity testing of human fatty acid synthase FASN (NADPH fluorescence intensity enzyme assay)
Settings: @30 μM
Text: • GST=Glutathione-S-transferase • FRET=Fluorescence resonance energy transfer • HTRF®=(homogenous time resolved fluorescence) • HEPES=4-(2-hydroxyethyl)-1-piperazine ethanesulfonic acid buffer • DTT=Dithiothreitol • BSA=bovine serum albumin • CHAPS=detergent; • CHAPS=3-[(3-cholamidopropyl)dimethylammonio]-1-propanesulfonate Biochemical Activity Testing of Human Fatty Acid Synthase FASN
Fatty acid synthase FASN is a multifunctional enzyme with seven catalytic activities thereby synthesising long chain fatty acids especially palmitoyl-CoA in the presence of co-factor NADPH starting from the substrates acetyl-CoA and malonyl-CoA. The reductive synthesis is realized by the oxidation of NADPH to NADP. Since NADPH has a high fluorescence intensity quantum yield compared to NADP with excitation at 340 nm and emission at 460 nm, the reaction can be monitored via the decrease in fluorescence intensity. The biochemical FASN activity testing was performed as 384 well two-time-point kinetic fluorescence intensity assay format in Greiner low volume medium binding 384-well black microtiter plates in a total assay volume of 8 μl and was used for high throughput screen. In each well 3 μl 40 nM human recombinant full-length fatty acid synthase (produced in-house in SF9 cells) were dispensed in the following assay buffer: 50 mM potassium phosphate buffer pH 7.0, 0.005% (w/v) BSA, 2 mM Glutathione, 0.02% Tween-20. Then 2 μl of 200 μM NADPH in assay buffer were added, followed by the addition of the test compounds in 10 dilution concentrations starting with 30 μM (final concentration) to get a final DMSO content of 1% (v/v). The mixture was incubated for at least 15 min at room temperature. After the pre-incubation the enzymatic reaction was started by the addition of 2 μl substrate solution (80 μM acetyl-CoA, 240 μM malonyl-CoA). A first fluorescence intensity measurement (time point one) was performed with an Envision multimode reader (Perkin Elmer LAS Germany GmbH) at excitation wavelength 340 nm (lamp mode) and emission wavelength 460 nm. The reaction was incubated for 30 minutes at room temperature. After this the fluorescence intensity was measured again in the Envision using the same parameters as described above (second time point measurement). The data were analysed by subtracting the first time point measurement value from the second time point measurement value (after the enzymatic reaction). The differences of the emission signals were determined. These reflect directly the conversion rate of NADPH. The full value used was the inhibitor-free reaction. A pharmacological zero value was used like GSK837149A (Sigma-Aldrich) in a final concentration of 5-10 μM. The inhibitory values (IC50) were determined using either the program Symyx Assay Explorer® or Condosseo® from GeneData.

T1 sequence (P49327 whole entry): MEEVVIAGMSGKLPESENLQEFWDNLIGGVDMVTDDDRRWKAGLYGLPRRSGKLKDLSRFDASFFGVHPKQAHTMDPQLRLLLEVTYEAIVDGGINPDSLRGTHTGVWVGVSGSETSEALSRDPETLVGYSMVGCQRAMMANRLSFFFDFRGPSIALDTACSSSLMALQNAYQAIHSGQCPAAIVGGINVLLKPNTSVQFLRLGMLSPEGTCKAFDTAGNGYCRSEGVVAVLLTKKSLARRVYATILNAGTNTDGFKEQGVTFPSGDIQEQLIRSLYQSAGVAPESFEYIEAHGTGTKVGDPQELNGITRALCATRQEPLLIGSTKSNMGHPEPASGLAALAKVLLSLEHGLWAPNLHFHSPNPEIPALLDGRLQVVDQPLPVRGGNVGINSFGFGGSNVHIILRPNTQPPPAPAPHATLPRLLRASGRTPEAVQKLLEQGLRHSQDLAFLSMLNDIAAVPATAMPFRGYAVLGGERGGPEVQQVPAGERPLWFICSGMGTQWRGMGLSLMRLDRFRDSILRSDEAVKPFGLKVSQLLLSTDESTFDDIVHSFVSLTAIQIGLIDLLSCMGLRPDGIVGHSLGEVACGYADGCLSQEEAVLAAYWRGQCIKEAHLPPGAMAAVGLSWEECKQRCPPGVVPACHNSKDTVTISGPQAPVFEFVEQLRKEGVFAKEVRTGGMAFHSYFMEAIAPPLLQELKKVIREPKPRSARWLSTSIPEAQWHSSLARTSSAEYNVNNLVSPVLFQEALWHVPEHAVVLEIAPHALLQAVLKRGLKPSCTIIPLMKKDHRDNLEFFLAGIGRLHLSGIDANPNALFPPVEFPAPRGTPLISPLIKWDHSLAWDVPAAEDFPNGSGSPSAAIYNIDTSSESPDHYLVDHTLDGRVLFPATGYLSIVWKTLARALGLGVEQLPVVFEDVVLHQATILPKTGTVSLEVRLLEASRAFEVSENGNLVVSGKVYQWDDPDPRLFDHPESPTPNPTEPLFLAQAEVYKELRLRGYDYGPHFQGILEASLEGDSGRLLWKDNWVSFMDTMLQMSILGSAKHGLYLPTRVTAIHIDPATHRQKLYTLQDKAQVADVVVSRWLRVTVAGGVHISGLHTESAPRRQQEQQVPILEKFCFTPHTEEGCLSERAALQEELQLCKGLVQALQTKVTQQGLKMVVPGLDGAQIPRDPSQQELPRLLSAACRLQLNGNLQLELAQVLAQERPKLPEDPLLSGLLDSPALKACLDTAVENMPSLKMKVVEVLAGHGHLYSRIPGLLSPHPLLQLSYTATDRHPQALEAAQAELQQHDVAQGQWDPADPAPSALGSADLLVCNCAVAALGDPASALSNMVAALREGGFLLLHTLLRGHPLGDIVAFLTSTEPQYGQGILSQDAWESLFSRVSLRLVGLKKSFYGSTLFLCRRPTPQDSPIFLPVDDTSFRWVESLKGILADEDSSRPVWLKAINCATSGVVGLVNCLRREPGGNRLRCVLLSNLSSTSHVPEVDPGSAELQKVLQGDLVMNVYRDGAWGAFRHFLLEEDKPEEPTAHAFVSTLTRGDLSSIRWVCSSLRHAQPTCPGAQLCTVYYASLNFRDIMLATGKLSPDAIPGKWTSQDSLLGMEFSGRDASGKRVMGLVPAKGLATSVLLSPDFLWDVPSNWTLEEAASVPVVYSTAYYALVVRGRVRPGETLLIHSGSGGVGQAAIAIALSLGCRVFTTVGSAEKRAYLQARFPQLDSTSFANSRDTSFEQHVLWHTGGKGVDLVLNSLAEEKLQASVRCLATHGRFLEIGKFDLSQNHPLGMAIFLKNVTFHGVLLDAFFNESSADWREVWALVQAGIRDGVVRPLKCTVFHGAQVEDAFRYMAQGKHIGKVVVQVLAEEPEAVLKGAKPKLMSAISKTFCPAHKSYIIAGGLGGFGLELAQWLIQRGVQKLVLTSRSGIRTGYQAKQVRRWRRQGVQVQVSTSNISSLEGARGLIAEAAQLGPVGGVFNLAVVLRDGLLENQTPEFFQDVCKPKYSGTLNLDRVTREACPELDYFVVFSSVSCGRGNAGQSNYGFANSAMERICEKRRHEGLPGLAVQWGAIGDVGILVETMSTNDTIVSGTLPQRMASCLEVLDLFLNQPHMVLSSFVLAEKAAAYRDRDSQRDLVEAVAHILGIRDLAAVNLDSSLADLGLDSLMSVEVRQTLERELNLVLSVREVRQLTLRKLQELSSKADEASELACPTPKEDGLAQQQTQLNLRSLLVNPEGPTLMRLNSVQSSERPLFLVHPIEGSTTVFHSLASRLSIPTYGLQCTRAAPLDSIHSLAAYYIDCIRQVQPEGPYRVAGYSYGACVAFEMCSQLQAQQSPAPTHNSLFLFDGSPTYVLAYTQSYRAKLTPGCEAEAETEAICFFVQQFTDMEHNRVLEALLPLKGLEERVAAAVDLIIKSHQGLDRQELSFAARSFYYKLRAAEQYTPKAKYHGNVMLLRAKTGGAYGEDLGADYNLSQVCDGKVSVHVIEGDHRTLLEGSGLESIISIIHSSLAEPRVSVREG

Structure (SMILES)	IC50 FASN (enzyme assay): % at single concentration [% @30 μM]
Cc1noc([C@H]2CC[C@@H](N(C)C(=O)c3ccc(-c4nc5ccccc5o4)cc3)C2)n1 [Compound A28, 4-benzoxazol-2-yl-N-methyl-N-[(1 R,3S)-3-(3-methyl-[1,2,4]oxadiazol-5-yl)-cyclopentyl]-benzamide]	−38

Same assay, conditions: human recombinant full-length FASN, inhibition

Structure (SMILES)	IC50 [nM]
COc1cc(C(=O)N(C)[C@@H]2CC[C@H](c3nnc(C)o3)C2)ccc1-c1nc2ccccc2o1 [Compound A18, 4-benzoxazol-2-yl-3-methoxy-N-methyl-N-[(1 R,3S)-3-(5-methyl-[1,3,4]oxadiazol-2-yl)-cyclopentyl]-benzamide]	< 300
CC(C)c1nnc([C@H]2CC[C@@H](N(C)C(=O)c3ccc(-c4ccc(C#N)cc4)cc3)C2)o1 [Compound A10, 4′-cyano-biphenyl-4-carboxylic acid [(1R,3S)-3-(5-isopropyl-[1,3,4]oxadiazol-2-yl)-cyclopentyl]-methyl-amide]	< 300
CCc1nnc([C@H]2CC[C@@H](N(C)C(=O)c3ccc(-c4nc5ccccc5o4)cc3)C2)o1 [Compound A5, 4-benzoxazol-2-yl-N-[(1 R,3S)-3-(5-ethyl-[1,3,4]oxadiazol-2-yl)-cyclopentyl]-N-methyl-benzamide]	< 300
CCc1nnc([C@H]2CC[C@@H](N(C)C(=O)c3ccc(-c4ccncc4)cc3)C2)o1 [Compound A8, N-[(1R,3S)-3-(5-ethyl-[1,3,4]oxadiazol-2-yl)-cyclopentyl]-N-methyl-4-pyridin-4-yl-benzamide]	300 to 3000
Cc1nnc([C@H]2CC[C@@H](N(C)C(=O)c3ccc(C#Cc4ccncc4)cc3)C2)o1 [Compound A22, N-methyl-N-[(1R,3S)-3-(5-methyl-[1,3,4]oxadiazol-2-yl)-cyclopentyl]-4-pyridin-4-ylethynyl-benzamide]	300 to 3000
Cc1nnc([C@H]2CC[C@@H](N(C)C(=O)c3ccc(-c4nc5ccccc5[nH]4)cc3)C2)o1 [Compound A17, 4-(1H-benzimidazol-2-yl)-N-methyl-N-[(1 R,3S)-3-(5-methyl-[1,3,4]oxadiazol-2-yl)-cyclopentyl]-benzamide]	< 300
CCCc1nnc([C@H]2CC[C@@H](N(C)C(=O)c3ccc(-c4ccccc4)cc3)C2)o1 [Compound A2, biphenyl-4-carboxylic acid methyl-[(1R,3S)-3-(5-propyl-[1,3,4]oxadiazol-2-yl)-cyclopentyl]-amide]	< 300
Cc1nnc([C@H]2CC[C@@H](N(C)C(=O)c3ccc(-c4ccc(Cl)cc4)cc3)C2)o1 [Compound A16, 4′-chloro-biphenyl-4-carboxylic acid methyl-[(1R,3S)-3-(5-methyl-[1,3,4]oxadiazol-2-yl)-cyclopentyl]-amide]	< 300
Cc1nnc([C@H]2CC[C@@H](N(C)C(=O)c3ccc(-c4ccccc4)cc3)C2)o1 [Compound A24, biphenyl-4-carboxylic acid methyl-[(1R,3S)-3-(5-methyl-[1,3,4]oxadiazol-2-yl)-cyclopentyl]-amide]	< 300
CCCc1cn([C@H]2CC[C@@H](N(C)C(=O)c3ccc(-c4ccccc4)cc3)C2)nn1 (racemic) [Compound A30, (rac)-cis-biphenyl-4-carboxylic acid methyl-[3-(4-propyl-[1,2,3]triazol-1-yl)-cyclopentyl]-amide]	3000 to 50000
Cc1nnc([C@H]2CC[C@@H](N(C)C(=O)c3ccc(-c4nc5ccccc5o4)cc3)C2)o1 [Compound A13, 4-benzoxazol-2-yl-N-methyl-N-[(1 R,3S)-3-(5-methyl-[1,3,4]oxadiazol-2-yl)-cyclopentyl]-benzamide]	< 300
Cc1nnc([C@H]2CC[C@@H](N(C)C(=O)c3ccc(-c4nc5cc(Cl)ccc5o4)cc3)C2)o1 [Compound A19, 4-(5-chloro-benzoxazol-2-yl)-N-methyl-N-[(1 R,3S)-3-(5-methyl-[1,3,4]oxadiazol-2-yl)-cyclopentyl]-benzamide]	< 300
CCCc1nnc([C@H]2CC[C@@H](N(C)C(=O)c3ccc(-c4ccc(C#N)cc4)cc3)C2)o1 [Compound A4, 4′-cyano-biphenyl-4-carboxylic acid methyl-[(1 R,3S)-3-(5-propyl-[1,3,4]oxadiazol-2-yl)-cyclopentyl]-amide]	< 300
Cc1nnc([C@H]2CC[C@@H](N(C)C(=O)c3ccc(-c4nc5ccccc5o4)cn3)C2)o1 [Compound A23, 5-benzoxazol-2-yl-pyridine-2-carboxylic acid methyl-[(1R,3S)-3-(5-methyl-[1,3,4]oxadiazol-2-yl)-cyclopentyl]-amide]	300 to 3000
Cc1nnc([C@H]2CC[C@@H](N(C)C(=O)c3ccc(-c4nc5ccccc5s4)cc3)C2)o1 [Compound A14, 4-benzothiazol-2-yl-N-methyl-N-[(1 R,3S)-3-(5-methyl-[1,3,4]oxadiazol-2-yl)-cyclopentyl]-benzamide]	< 300
Cc1nnc([C@H]2CC[C@@H](N(C)C(=O)c3ccc(C#Cc4ccc(Cl)cc4)cc3)C2)o1 [Compound A21, 4-(4-chloro-phenylethynyl)-N-methyl-N-[(1 R,3S)-3-(5-methyl-[1,3,4]oxadiazol-2-yl)-cyclopentyl]-benzamide]	< 300
Cc1cnc([C@H]2CC[C@@H](N(C)C(=O)c3ccc(-c4nc5ccccc5o4)cc3)C2)o1 [Compound A26, 4-benzoxazol-2-yl-N-methyl-N-[(1 R,3S)-3-(5-methyl-oxazol-2-yl)-cyclopentyl]-benzamide]	< 300
CCc1nnc([C@H]2CC[C@@H](N(C)C(=O)c3ccc(-c4ccc(C#N)cc4)cc3)C2)o1 [Compound A6, 4′-cyano-biphenyl-4-carboxylic acid [(1R,3S)-3-(5-ethyl-[1,3,4]oxadiazol-2-yl)-cyclopentyl]-methyl-amide]	< 300
CC(C)c1nnc([C@H]2CC[C@@H](N(C)C(=O)c3ccc(-c4nc5ccccc5[nH]4)cc3)C2)o1 [Compound A11, 4-(1H-benzimidazol-2-yl)-N-[(1 R,3S)-3-(5-isopropyl-[1,3,4]oxadiazol-2-yl)-cyclopentyl]-N-methyl-benzamide]	< 300
CCCc1nnc([C@H]2CC[C@@H](N(C)C(=O)c3ccc(C#Cc4ccc(F)cc4)cc3)C2)o1 [Compound A3, 4-(4-fluoro-phenylethynyl)-N-methyl-N-[(1 R,3S)-3-(5-propyl-[1,3,4]oxadiazol-2-yl)-cyclopentyl]-benzamide]	< 300
CC(C)c1nnc([C@H]2CC[C@@H](N(C)C(=O)c3ccc(-c4nc5ccccc5o4)cc3)C2)o1 [Compound A9, 4-benzoxazol-2-yl-N-[(1 R,3S)-3-(5-isopropyl-[1,3,4]oxadiazol-2-yl)-cyclopentyl]-N-methyl-benzamide]	< 300
CCc1nnc([C@H]2CC[C@@H](N(C)C(=O)c3ccc(-c4nc5ccccc5[nH]4)cc3)C2)o1 [Compound A7, 4-(1H-benzimidazol-2-yl)-N-[(1 R,3S)-3-(5-ethyl-[1,3,4]oxadiazol-2-yl)-cyclopentyl]-N-methyl-benzamide]	< 300
CCCc1nnc([C@H]2CC[C@@H](N(C)C(=O)c3ccc(-c4nc5ccccc5o4)cc3)C2)o1 [Compound A1, 4-benzoxazol-2-yl-N-methyl-N-[(1 R,3S)-3-(5-propyl-[1,3,4]oxadiazol-2-yl)-cyclopentyl]-benzamide]	< 300
CC(C)c1nnc([C@H]2CC[C@@H](N(C)C(=O)c3ccc(-c4ccncc4)cc3)C2)o1 [Compound A12, N-[(1R,3S)-3-(5-isopropyl-[1,3,4]oxadiazol-2-yl)-cyclopentyl]-N-methyl-4-pyridin-4-yl-benzamide]	300 to 3000
Cc1coc([C@H]2CC[C@@H](N(C)C(=O)c3ccc(-c4nc5ccccc5o4)cc3)C2)n1 [Compound A27, 4-benzoxazol-2-yl-N-methyl-N-[(1 R,3S)-3-(4-methyl-oxazol-2-yl)-cyclopentyl]-benzamide]	300 to 3000
Cc1nnc([C@H]2CC[C@@H](N(C)C(=O)c3ccc(-c4ccncc4)cc3)C2)o1 [Compound A15, N-methyl-N-[(1R,3S)-3-(5-methyl-[1,3,4]oxadiazol-2-yl)-cyclopentyl]-4-pyridin-4-yl-benzamide]	300 to 3000
Cc1nnc([C@H]2CC[C@@H](N(C)C(=O)c3ccc(-c4ccc(C#N)cc4)cc3)C2)o1 [Compound A25, 4′-cyano-biphenyl-4-carboxylic acid methyl-[(1R,3S)-3-(5-methyl-[1,3,4]oxadiazol-2-yl)-cyclopentyl]-amide]	< 300
